According to US20100105652A1, “PURINES AS CYSTEINE PROTEASE INHIBITORS” (Glaxo Group Limited, priority 2007, published 2010):
Structures can show the parent of a compound that is named as a salt.

Tests used:
Falcipain-3 = target: T1, Falcipain-3 (Plasmodium falciparum, UniProt Q8IIL0); assay: falcipain-3 enzymatic assay (fluorogenic substrate H-D-VLR-AFC, endpoint); format: biochemical; settings: parasitic recombinant enzyme, pH 5.5, quenched after 60 minutes
T1 sequence (Q8IIL0 243-492): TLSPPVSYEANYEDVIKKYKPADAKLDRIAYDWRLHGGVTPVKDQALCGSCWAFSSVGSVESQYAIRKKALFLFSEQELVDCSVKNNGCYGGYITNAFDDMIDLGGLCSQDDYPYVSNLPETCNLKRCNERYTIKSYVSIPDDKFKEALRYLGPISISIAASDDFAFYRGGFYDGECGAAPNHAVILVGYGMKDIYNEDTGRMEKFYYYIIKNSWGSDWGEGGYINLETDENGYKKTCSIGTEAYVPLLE
Experimental: (§1) 1) Determination of Falcipain-2, Falcipain-3, Vivapain-2, and Cathepsin S Proteolytic Catalytic Activity
(§2) Assays for Falcipain-2, Falcipain-3, and Vivapain-2 are carried out with parasitic recombinant enzymes. Cathepsins S is carried out with human recombinant enzymes. Standard assay conditions for the determination of kinetic constants used a fluorogenic peptide substrate, typically H-D-VLR-AFC (Falcipain-2, Falcipain-3, Vivapain-2) or KQKLR-AMC (Cathepsin S) and are determined in 100 mM sodium acetate, pH 5.5, containing 10 mM DTT and 0.5 mM CHAPS (Falcipain-2, Falcipain-3, Vivapain-2), or 50 mM MES, pH 6.5, containing 0.5 mM CHAPS, 10 mM L-CYS, 5 mM EDTA (Cathepsin S). Stock substrate solutions are prepared at 20 mM in DMSO. The activity assays contained 30 uM substrate (Falcipain-2, Falcipain-3, Vivapain-2), and 30 uM substrate (Cathepsin S). All assays contained 1% DMSO. […] All assays are conducted at ambient temperature as end point assays being quenched after 60 minutes with the exception of Cathepsin S at 90 minutes, with 16.6 uM E-64 in 1% DMSO. Product formation (AFC or AMC) is determined from fluorescence (excitation at 405 nm; emission at 530 nm, AFC, or excitation at 360 nm; emission at 460 nm, AMC) monitored with a LJL Aquest (Molecular Devices) fluorescent plate reader. In the case of kinetic reads (used in mechanism of action studies), the reaction is not quenched but is read in the plate reader every 3 minutes for approximately 90 minutes. In addition, the mechanism of action studies for Falcipain-2 utilize Z-LR-AMC as the substrate. Product formation is determined from the fluorescence of AMC, measured with a LJL Acquest (Molecular Devices) fluorescent plate reader (excitation at 360 nm; emission at 460 nm).
(§3) Potential inhibitors are evaluated using the quenched read (endpoint) method. Assays are carried out in the presence of variable concentrations of test compound. Reactions are initiated by addition of enzyme and substrate to wells containing inhibitor stamped in 100% DMSO. For endpoint assays, the reaction is quenched with the addition of E64. Dose response data is fit to an IC50 curve with preset fitting tools according to equation 1:
(§4) y=a+(b−a)/(1+(10^X/10^C)^d) (1)
(§5) where y is the response at a particular inhibitor concentration x, a is the minimum response value, b is the maximum response value, c is the IC50, and d is the slope of the IC50 curve. Assuming the compound is a competitive inhibitor, the apparent KI can be calculated from IC50, as shown in equation 2: […]

Falcipain-2 = target: T2, Falcipain-2 (Plasmodium falciparum, UniProt Q8I6U4); assay: falcipain-2 enzymatic assay (fluorogenic substrate H-D-VLR-AFC, endpoint); format: biochemical; settings: parasitic recombinant enzyme, pH 5.5, quenched after 60 minutes
T2 sequence (Q8I6U4 244-484): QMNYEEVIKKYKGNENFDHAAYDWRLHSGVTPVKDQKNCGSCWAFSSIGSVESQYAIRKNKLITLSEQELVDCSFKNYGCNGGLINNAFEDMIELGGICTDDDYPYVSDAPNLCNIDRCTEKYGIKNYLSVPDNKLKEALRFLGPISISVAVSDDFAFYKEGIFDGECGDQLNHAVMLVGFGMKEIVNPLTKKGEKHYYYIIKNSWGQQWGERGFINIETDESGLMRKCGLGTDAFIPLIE
Experimental: as §1, §2, §3, §4, §5

[1] = system: Plasmodium falciparum parasite; assay: whole cell activity against the Plasmodium falciparum parasite; format: cell-based
Source text: Equation 7 describes the apparent KI for competitive compounds and was substituted into equations 5 and 6 to generate the relevant binding constants from the fitting routine. In addition, the initial and final velocities were fit to equation 3 to further define the binding mechanism and potency. A complete discussion of this kinetic treatment has been fully described (Morrison et al., Adv. Enzymol. Relat. Areas Mol. Biol., 1988, 61, 201). 2) Determination of Whole Cell Activity Against the Plasmodium falciparum Parasite Compounds can be evaluated for whole cell activity against the Plasmodium falciparum parasite according to the procedure described in Sijwali S, and Rosenthal P. J., (2004) Proceedings of the National Academy of Sciences of the United States of America (PNAS) 101(13), 4384-4389 (see in particular “Measurement of Parasite Growth rates and Inhibitor Sensitivity” on page 4385); IC50 values can be calculated as described in Singh A. and Rosenthal P. J., (2001) Antimicrobial Agents and Chemotherapy 45(3), 949-951 (see in particular page 950, first column); synchronised parasites can be prepared as described in Divo A. A. et al., (1985) Protozool. 32, 59-64.

Row | Structure (SMILES) | IC50 (Falcipain-3) [nM] | IC50 (Falcipain-2) [nM] | IC50 [1] [nM]
1 | CN1CCN(Cc2ccc(C(=O)NN(c3nc(C#N)nc4c3ncn4C(=O)N3CCN(C)CC3)C3CCCC3)cc2)CC1 [Example 34, N′-{2-cyano-9-[(4-methyl-1-piperazinyl)carbonyl]-9H-purin-6-yl}-N′-cyclopentyl-4-[(4-methyl-1-piperazinyl)methyl]benzohydrazide trifluoroacetate] | 15 to 150 | 1 to 2.5 | 15 to 150
2 | CN1CCN(Cc2ccc(-c3cccc(C(=O)NN(c4nc(C#N)nc5c4ncn5C)C4CCCC4)n3)cc2)CC1 [Example 28, N′-(2-cyano-9-methyl-9H-purin-6-yl)-N′-cyclopentyl-6-{4-[(4-methyl-1-piperazinyl)methyl]phenyl}-2-pyridinecarbohydrazide trifluoroacetate] | 15 to 150 | 2.5 to 15 | 15 to 150
3 | CN(C)C1CCN(C(=O)n2cnc3c(N(NC(=O)OC(C)(C)C)C4CCCC4)nc(C#N)nc32)CC1 [Example 48, 1,1-dimethylethyl 2-(2-cyano-9-{[4-(dimethylamino)-1-piperidinyl]carbonyl}-9H-purin-6-yl)-2-cyclopentylhydrazinecarboxylate trifluoroacetate] | 15 to 150 | 1 to 2.5 | 150 to 250
4 | CN1CCN(C(=O)C2CCN(Cc3ccc(C(=O)NN(c4nc(C#N)nc5c4ncn5C)C4CCCCC4)cc3)CC2)CC1 [Example 10, N′-(2-cyano-9-methyl-9H-purin-6-yl)-N′-cyclohexyl-4-({4-[(4-methyl-1-piperazinyl)carbonyl]-1-piperidinyl}methyl)benzohydrazide trifluoroacetate] | 15 to 150 | 2.5 to 15 | 2.5 to 15
5 | CN(C)CCn1cnc2c(N(CC3CCCC3)NC(=O)c3ccc(CN4CCN(C)CC4)cc3)nc(C#N)nc21 [Example 14, N′-{2-cyano-9-[2-(dimethylamino)ethyl]-9H-purin-6-yl}-N′-(cyclopentylmethyl)-4-[(4-methyl-1-piperazinyl)methyl]benzohydrazide trifluoroacetate] | 15 to 150 | 2.5 to 15 | 15 to 150
6 | CN(C)CCn1cnc2c(N(CC3CCCC3)NC(=O)OC(C)(C)C)nc(C#N)nc21 [Example 13, 1,1-dimethylethyl 2-{2-cyano-9-[2-(dimethylamino)ethyl]-9H-purin-6-yl}-2-(cyclopentylmethyl)hydrazinecarboxylate trifluoroacetate] | 15 to 150 | ≤ 1 | 15 to 150
7 | CN(C)CCCCNC(=O)n1cnc2c(N(NC(=O)OC(C)(C)C)C3CCCC3)nc(C#N)nc21 [Example 49, 1,1-dimethylethyl 2-[2-cyano-9-({[4-(dimethylamino)butyl]amino}carbonyl)-9H-purin-6-yl]-2-cyclopentylhydrazinecarboxylate trifluoroacetate] | 15 to 150 | 2.5 to 15 | > 1000
8 | CN(C)CCn1cnc2c(N(NC(=O)c3cccc(N4CCN(C)CC4)c3)C3CCCC3)nc(C#N)nc21 [Example 41, N′-{2-cyano-9-[2-(dimethylamino)ethyl]-9H-purin-6-yl}-N′-cyclopentyl-3-(4-methyl-1-piperazinyl)benzohydrazide bis(trifluoroacetate)] | 15 to 150 | 1 to 2.5 | 15 to 150
9 | CN(C)CCn1cnc2c(N(NC(=O)c3cccc(-c4ccc(CN5CCN(C)CC5)cc4)n3)C3CCCCC3)nc(C#N)nc21 [Example 45, N′-{2-cyano-9-[2-(dimethylamino)ethyl]-9H-purin-6-yl}-N′-cyclohexyl-6-{4-[(4-methyl-1-piperazinyl)methyl]phenyl}-2-pyridinecarbohydrazide trifluoroacetate] | 15 to 150 | 2.5 to 15 | 15 to 150
10 | CN(C)CCn1cnc2c(N(NC(=O)c3ccc(CN4CCN(C)CC4)cc3)C3CCCCC3)nc(C#N)nc21 [Example 44, N′-{2-cyano-9-[2-(dimethylamino)ethyl]-9H-purin-6-yl}-N′-cyclohexyl-4-[(4-methyl-1-piperazinyl)methyl]benzohydrazide trifluoroacetate] | 15 to 150 | 2.5 to 15 | 15 to 150
11 | CN1CCN(C(=O)n2cnc3c(N(NC(=O)OC(C)(C)C)C4CCCC4)nc(C#N)nc32)CC1 [Example 29, 1,1-dimethylethyl 2-{2-cyano-9-[(4-methyl-1-piperazinyl)carbonyl]-9H-purin-6-yl}-2-cyclopentylhydrazinecarboxylate] | 2.5 to 15 | ≤ 1 | 400 to 1000
12 | CN(CCn1cnc2c(N(NC(=O)OC(C)(C)C)C3CCCC3)nc(C#N)nc21)C(C)(C)C [Example 43, 1,1-dimethylethyl 2-(2-cyano-9-{2-[(1,1-dimethylethyl)(methyl)amino]ethyl}-9H-purin-6-yl)-2-cyclopentylhydrazinecarboxylate trifluoroacetate] | 15 to 150 | 2.5 to 15 | 250 to 400
13 | CN1CCN(Cc2ccc(C(=O)NN(c3nc(C#N)nc4c3ncn4C(=O)N3CCN(C)CC3)C3CCCCC3)cc2)CC1 [Example 38, N′-{2-cyano-9-[(4-methyl-1-piperazinyl)carbonyl]-9H-purin-6-yl}-N′-cyclohexyl-4-[(4-methyl-1-piperazinyl)methyl]benzohydrazide trifluoroacetate] | 2.5 to 15 | ≤ 1 | 15 to 150
14 | CN1CCN(Cc2ccc(-c3cncc(C(=O)NN(c4nc(C#N)nc5c4ncn5C)C4CCCC4)c3)cc2)CC1 [Example 27, N′-(2-Cyano-9-methyl-9H-purin-6-yl)-N′-cyclopentyl-5-{4-[(4-methyl-1-piperazinyl)methyl]phenyl}-3-pyridinecarbohydrazide trifluoroacetate] | 15 to 150 | ≤ 1 | 15 to 150
15 | CN1CCN(C(=O)n2cnc3c(N(NC(=O)OC(C)(C)C)C4CCCCC4)nc(C#N)nc32)CC1 [Example 35, 1,1-dimethylethyl 2-{2-cyano-9-[(4-methyl-1-piperazinyl)carbonyl]-9H-purin-6-yl}-2-cyclohexylhydrazinecarboxylate trifluoroacetate] | 1 to 2.5 | ≤ 1 | 150 to 250
16 | CC(C)(C)OC(=O)NN(CC1CCCC1)c1nc(C#N)nc2c1ncn2CCN1C(=O)c2ccccc2C1=O [Example 21, 1,1-dimethylethyl-2-{2-cyano-9-[2-(1,3-dioxo-1,3-dihydro-2H-isoindol-2-yl)ethyl]-9H-purin-6-yl}-2-(cyclopentylmethyl)hydrazinecarboxylate] | 250 to 400 | 15 to 150 | 250 to 400
